Reference: ChEMBL document CHEMBL4152365, “Discovery of DS-6930, a potent selective PPARγ modulator. Part I: Lead identification” (Bioorg Med Chem, 2018)
Converted amounts (≈) assume the structure as drawn. The source made the active and inactive calls. No cut-off for these calls is given here.

Legend:
[1] = molecular target: T1, Peroxisome proliferator-activated receptor gamma (Homo sapiens, UniProt P37231); assay: Agonist activity at recombinant human GAL4-DBD fused PPARgamma LBD expressed in COS7 cells after 24 hrs by luciferase reporter gene assay; assay type: cell-based
T1 sequence (P37231 whole entry): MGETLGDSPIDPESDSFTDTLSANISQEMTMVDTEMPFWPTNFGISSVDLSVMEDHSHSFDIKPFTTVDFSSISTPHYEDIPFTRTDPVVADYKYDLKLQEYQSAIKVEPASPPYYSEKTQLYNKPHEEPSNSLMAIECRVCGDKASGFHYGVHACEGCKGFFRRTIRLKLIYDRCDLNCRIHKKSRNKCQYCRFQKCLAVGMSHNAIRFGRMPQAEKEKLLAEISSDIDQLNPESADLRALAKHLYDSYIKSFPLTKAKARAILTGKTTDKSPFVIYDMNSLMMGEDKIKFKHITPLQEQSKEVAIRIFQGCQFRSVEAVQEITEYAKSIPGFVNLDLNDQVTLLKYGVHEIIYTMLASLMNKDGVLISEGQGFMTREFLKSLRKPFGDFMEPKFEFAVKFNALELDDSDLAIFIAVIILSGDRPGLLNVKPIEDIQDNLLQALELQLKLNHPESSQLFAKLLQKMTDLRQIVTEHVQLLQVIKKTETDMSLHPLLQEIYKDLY

[2] = molecular target: T2, Peroxisome proliferator-activated receptor gamma (Homo sapiens) (UniProt P37231); assay: Agonist activity at recombinant human GAL4-DBD fused PPARgamma LBD expressed in COS7 cells at 10 uM after 24 hrs by luciferase reporter gene assay relative to rosiglitazone; assay type: cell-based
T2 sequence (whole entry): T1 sequence (P37231 whole entry)

[3] = molecular target: T3, Peroxisome proliferator-activated receptor alpha (Homo sapiens, UniProt Q07869); assay: Agonist activity at recombinant human GAL4-DBD fused PPARalpha LBD expressed in COS7 cells after 24 hrs by luciferase reporter gene assay; assay type: cell-based
T3 sequence (Q07869 whole entry): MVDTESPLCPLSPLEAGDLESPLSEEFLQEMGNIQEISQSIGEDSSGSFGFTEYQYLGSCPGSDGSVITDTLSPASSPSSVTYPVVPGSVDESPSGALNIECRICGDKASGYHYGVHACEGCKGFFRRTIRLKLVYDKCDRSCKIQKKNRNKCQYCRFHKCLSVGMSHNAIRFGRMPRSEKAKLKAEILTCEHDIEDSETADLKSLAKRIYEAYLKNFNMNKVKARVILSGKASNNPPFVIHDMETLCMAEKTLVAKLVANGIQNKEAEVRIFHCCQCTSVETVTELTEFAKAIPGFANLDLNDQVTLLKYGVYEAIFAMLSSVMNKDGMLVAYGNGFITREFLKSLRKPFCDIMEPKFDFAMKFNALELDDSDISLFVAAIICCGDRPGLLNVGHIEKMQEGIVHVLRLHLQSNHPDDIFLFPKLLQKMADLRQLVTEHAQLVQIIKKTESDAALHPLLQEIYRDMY

[4] = molecular target: T4, Peroxisome proliferator-activated receptor alpha (Homo sapiens) (UniProt Q07869); assay: Agonist activity at recombinant human GAL4-DBD fused PPARalpha LBD expressed in COS7 cells at 10 uM after 24 hrs by luciferase reporter gene assay relative to 2-(4-tert-Butylphenoxy)-3-[4-[2-[(4-pyridin-2-ylbenzoyl)amino]ethoxy]; assay type: cell-based
T4 sequence (whole entry): T3 sequence (Q07869 whole entry)

[5] = 1-octanol/PBS distribution co-efficient, log D of the compound at […] at pH 7.4 after 30 mins by HPLC-MS/MS analysis; assay type: physicochemical
[6] = Metabolic stability in human liver microsomes after 0.5 hrs; assay type: ADME, microsome; conditions: read-out: Stability
[7] = Plasma concentration in hyperglycemic KK/Ta mouse at 30 mg/kg/day, po administered through diet for 3 days measured on day 3 post last dose; assay type: ADME, organism-based
[8] = system: Mus musculus; assay: Toxicity in hyperglycemic KK/Ta mouse assessed as body weight gain at 30 mg/kg/day, po administered through diet for 3 days relative to control; assay type: organism-based; conditions: in vivo, 72 h
[9] = system: Mus musculus; assay: Glucose-lowering effect in hyperglycemic KK/Ta mouse assessed as reduction in plasma glucose level at 30 mg/kg/day, po administered through diet for 3 days relative to control; assay type: functional; parameters: scale not given: the % may be the effect or the level left
[10] = Aqueous thermodynamic solubility of the compound in pH 6.8 solution up to 4 hrs by HPLC-UV analysis; assay type: physicochemical; conditions: read-out: Therm_solubility
[11] = molecular target: T5, Peroxisome proliferator-activated receptor delta (Homo sapiens) (UniProt Q03181); assay: Agonist activity at PPARdelta (unknown origin) at 10 uM
T5 sequence (whole entry): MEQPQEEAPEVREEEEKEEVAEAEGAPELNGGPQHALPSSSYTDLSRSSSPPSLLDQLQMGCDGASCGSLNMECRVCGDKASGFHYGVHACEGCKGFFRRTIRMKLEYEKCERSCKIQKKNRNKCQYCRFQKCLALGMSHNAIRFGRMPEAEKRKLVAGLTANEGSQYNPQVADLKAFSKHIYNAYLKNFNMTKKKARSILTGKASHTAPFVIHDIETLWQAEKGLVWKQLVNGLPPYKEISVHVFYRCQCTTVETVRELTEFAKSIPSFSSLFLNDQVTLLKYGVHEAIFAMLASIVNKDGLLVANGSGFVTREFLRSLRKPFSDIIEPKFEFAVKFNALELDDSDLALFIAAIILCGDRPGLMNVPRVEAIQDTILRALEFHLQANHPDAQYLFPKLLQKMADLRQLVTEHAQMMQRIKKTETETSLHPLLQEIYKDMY

| EC50 [1] [nM] | Emax [2] [%] | EC50 [3] [µM] | Emax [4] [%] | logD at 0.5 h [5] | remaining at 0.5 h [6] [%] | concentration at 72 h [7] [ng/mL] | solubility thermodynamic at 4 h [10] [µg/mL] | Activity [11] | Compound | Activity [8] [%] | Activity [9] [%] |
| --- | --- | --- | --- | --- | --- | --- | --- | --- | --- | --- | --- |
| 43 | 92 | – | – | – | – | – | – | – | Cc1cc(Oc2ccc3nc(COc4cccc(C#N)c4)n(C)c3c2)cc(C)c1N | – | – |
| 356 | 96 | – | – | – | – | – | – | – | CC(=O)c1ccccc1OCc1nc2ccc(Oc3cc(C)c(N)c(C)c3)cc2n1C | – | – |
| 1330 | 76 | > 10 | 19 | 1.8 | 85 | – | – | – | Cn1c(COc2cccc(C(=O)O)c2)nc2ccc(Oc3c(F)cccc3F)cc21 | – | – |
| 118 | 71 | > 10 | 39 | 2 | 100 | 160 | – | – | Cl.Cn1c(COc2cccc(C(=O)O)c2)nc2ccc(Oc3ccc(F)c(F)c3)cc21 | 3.4 | 56 |
| 39 | 84 | > 10 | 17 | 2.5 | 64 | – | 0.6 (≈ 1.48 µM) | – | Cc1ccc(F)cc1Oc1ccc2nc(COc3cccc(C(=O)O)c3)n(C)c2c1 | 5.1 | 26.4 |
| 395 | 79 | – | – | – | – | – | – | – | Cc1cc(Oc2ccc3nc(COc4ccc(C#N)cc4)n(C)c3c2)cc(C)c1N | – | – |
| 143 | 77 | > 10 | 17 | 1.9 | 100 | 370 | 11 (≈ 26.8 µM) | – | Cn1c(COc2cccc(C(=O)O)c2)nc2ccc(Oc3ccc(F)cc3F)cc21 | 3.7 | 37.6 |
| 188 | 79 | > 10 | 37 | 2.4 | 100 | 380 | 0.8 (≈ 1.93 µM) | – | Cn1c(COc2cccc(C(=O)O)c2)nc2ccc(Oc3ccc4ccoc4c3)cc21 | 2.5 | 48.3 |
| 43 | 126 | – | – | – | – | – | – | – | COc1ccc2nc(COc3ccc(CC4SC(=O)NC4=O)cc3)n(C)c2c1 (stereo unspecified) [RIVOGLITAZONE] | – | – |
| 62 | 61 | > 10 | 28 | 2.3 | 69 | 190 | – | – | Cc1cc(Oc2ccc3nc(COc4cccc(C(=O)O)c4)n(C)c3c2)ccc1F.Cl | 3.5 | 49.4 |
| 230 | 86 | – | 52 | 2.1 | 88 | – | – | – | Cn1c(COc2cccc(C(=O)O)c2)nc2ccc(Oc3cccc(F)c3F)cc21 | 4.3 | 35.8 |
| – | 73 | – | – | 1.4 | 88 | – | 11 | – | Cc1cc(Oc2ccc3nc(COc4cccc(C(=O)O)c4)n(C)c3c2)cc(C)c1N.Cl.Cl | – | – |
| 21 | 84 | > 10 | 29 | 2.7 | 100 | 190 | 0.5 (≈ 1.23 µM) | – | Cc1cc(F)cc(Oc2ccc3nc(COc4cccc(C(=O)O)c4)n(C)c3c2)c1 | 1.7 | 58.3 |
| 1430 | 125 | > 10 | 21 | 1.7 | – | – | 12 (≈ 30.6 µM) | inactive | Cn1c(COc2cccc(C(=O)O)c2)nc2ccc(Oc3ccccc3F)cc21 | – | – |
| 340 | 70 | – | – | – | – | – | – | – | CC(=O)c1ccc(OCc2nc3ccc(Oc4cc(C)c(N)c(C)c4)cc3n2C)cc1 | – | – |
| 12 | 64 | – | – | – | – | – | – | – | CCc1ccc2ccc(F)cc2c1CNC(=O)c1c(OC)cc(O)c2c1OC1=CC(O)=C(C(C)=O)C(=O)[C@]12C | – | – |
| 64 | 79 | – | 52 | 2.8 | – | 170 | – | – | Cl.Cn1c(COc2cccc(C(=O)O)c2)nc2ccc(Oc3ccc(F)c(Cl)c3)cc21 | 3.7 | 30 |
| 6090 | 52 | – | – | – | – | – | – | – | Cc1cc(Oc2ccc3nc(COc4ccccc4C(=O)O)n(C)c3c2)cc(C)c1N | – | – |
| 87 | 60 | > 10 | 8 | 1.7 | 87 | – | 7.6 | – | Cl.Cn1c(COc2cccc(C(=O)O)c2)nc2ccc(Oc3ccc4c(c3)CCO4)cc21 | – | – |
| 391 | 80 | – | – | – | – | – | – | – | Cc1cc(Oc2ccc3nc(COc4ccccc4C#N)n(C)c3c2)cc(C)c1N | – | – |
| 40 | 56 | > 10 | 37 | 2.4 | – | – | – | inactive | CCOc1cccc(Oc2ccc3nc(COc4cccc(C(=O)O)c4)n(C)c3c2)c1 | 3.3 | 22 |
| 65 | 86 | – | – | – | – | – | – | – | CC(=O)c1cccc(OCc2nc3ccc(Oc4cc(C)c(N)c(C)c4)cc3n2C)c1 | – | – |
| 139 | 111 | > 10 | 37 | 2.4 | 83 | 120 | 11 (≈ 27.1 µM) | – | Cc1ccc(F)c(Oc2ccc3nc(COc4cccc(C(=O)O)c4)n(C)c3c2)c1 | 1.6 | 49.4 |
| 0.038 | 100 | – | – | – | – | – | – | – | Cc1cc(Oc2ccc3nc(COc4ccc(CC5SC(=O)NC5=O)cc4)n(C)c3c2)cc(C)c1N (stereo unspecified) [EFATUTAZONE] | – | – |
| 23 | 78 | > 10 | 43 | 2.8 | 78 | 370 | 0.9 (≈ 2.11 µM) | – | Cn1c(COc2cccc(C(=O)O)c2)nc2ccc(Oc3cc(F)cc(Cl)c3)cc21 | 3.1 | 57.5 |
| 318 | 73 | – | – | – | – | – | – | – | Cc1cc(Oc2ccc3nc(COc4ccccc4)n(C)c3c2)cc(C)c1N | – | – |
| – | 90 | – | – | 1.8 | 100 | – | 2 | inactive | Cl.Cn1c(COc2cccc(C(=O)O)c2)nc2ccc(Oc3ccccc3)cc21 | – | – |
| 95 | 54 | > 10 | 33 | 2.3 | – | 360 | 10 (≈ 24.4 µM) | – | Cn1c(COc2cccc(C(=O)O)c2)nc2ccc(Oc3cc(F)cc(F)c3)cc21 | 4.4 | 39.5 |
| 797 | 91 | – | – | – | – | – | – | – | Cc1cc(Oc2ccc3nc(COc4ccc(C(=O)O)cc4)n(C)c3c2)cc(C)c1N | – | – |
